Assay results published in patent publication USRE37781E1, “Substituted cyclic carbonyls and derivatives thereof useful as retroviral protease inhibitors” (DuPont Pharmaceuticals Company, priority 1991, dated 2002).
In brackets after ≈: the same amount, converted by molar mass. Like-named read-outs stand apart in the source and are kept apart here.

Key:
[1] = biological target: single-chain tethered dimer of HIV protease (Human immunodeficiency virus 1, UniProt P04585); experiment: biochemical; type: biochemical
Procedure: HIV Protease Inhibition Assay—HPLC Method
Active protease was prepared as described therein by extraction with 67% acetic acid, dilution 33-fold with water, dialysis against water and then against a “refolding buffer” consisting of 20 mM MES, 1 mM dithiothreitol and 10% glycerol. Protease was stored as a stock preparation at 10 uM in refolding buffer.
Substrate: Peptide of sequence: aminobenzoyl-Ala-Thr-His-Gln-Val-Tyr-Phe(NO2)-Val-Arg-Lys-Ala containing p-nitrophenylalanine, was prepared by solid phase synthesis as previously described Cheng et al., op.cit. Stock solutions of 2 mM substrate were prepared in DMSO.
Inhibitory compounds were dissolved in sufficient DMSO to make 3 mM stock solutions. All further dilutions were prepared in “assay buffer”: 1M NaCl, 50 mM MES, pH 5.5, 1 mM EDTA, 1 mM DTT, […] glycerol.
Enzyme reaction: In a 2 ml screw-cap centrifuge tube were added 50 ul protease (final concentration 0.25 nM) and 0.1 ml inhibitory compound (final concentration […]). After 15 min preincubation at room temperature, the reaction was started with the addition of 0.05 ml substrate (final concentration 5 uM). Incubation was carried out at 30 C. for 1 hr. The reaction was stopped with 1 ml 0.1M ammonium hydroxide.
HPLC measurement of product formation: The product (aminobenzoyl-Ala-Thr-His-Gln-Val-Tyr) was separated from substrate on a Pharmacia MonoQ anion exchange column. The injection volume was 0.2 ml. The mobile phases were: A (20 mM trisHCl, pH 9.0, 0.02% sodium Azide, 10% acetonitrile), B (20 mM tris HCl, pH 9.0, 0.02% sodium azide, 0.5M ammonium formate, 10% acetonitrile). The mobile phases were pumped at 1 ml/min, with a gradient from 0 to 30% B in 5 min, 100% B for 4 min to wash the column, and a re-equilibration for 4 min. The retention time of the product was 3.6 min. Detection with a Shimadzu model RF535 fluorescence monitor was at 330 nm (excitation) and 430 (emission).

[2] = system: HIV-1 (RF) in MT-2 cells; experiment: microbe, parasite or virus in culture; type: cell-based; settings: HIV-1 infected MT-2 cells, class symbols
Procedure, shortened: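 Read-out: gag and pol viral RNA captured by 5′-biotinylated oligonucleotides on streptavidin-coated wells, detected with alkaline phosphatase-linked reporter oligonucleotides, calibrated against BH10 in vitro transcripts. Virus stocks (RF, MN, IIIB) come from H9 cultures; MT-2 host cells kept in RPMI 1640, 5% FCS.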

[3] = Human immunodeficiency virus 1, MT2, HIV RNA assay, read-out: IC90
[4] = HIV protease inhibition, class symbols, read-out: Ki

## O=C1NC(Cc2ccccc2)C(O)C(O)C(Cc2ccccc2)N1Cc1ccccc1 (centres unmarked) [Example 6o]
[1]
  Ki: < 10 nM
[2]; [3]
  IC90: < 10 µg/mL

## O=C1N(Cc2ccccc2)C(Cc2ccccc2)C(O)C(O)C(Cc2ccccc2)N1Cc1ccc2ccccc2n1 (centres unmarked) [Example 4O]
[1]
  Ki: 10 to 1000 nM
[2]; [3]
  IC90: < 10 µg/mL

## O=C1N(Cc2ccc(O)cc2)C(Cc2ccccc2)C(O)C(O)C(Cc2ccccc2)N1CC1CC1 (centres unmarked) [Example 6E]
[1]; [4]
  Ki: < 10 nM
[2]; HIV RNA assay
  IC90: +++ (+++=<10 μg/mL)

## CCCN1C(=O)N(Cc2ccc3ccccc3c2)C(Cc2ccccc2)C(O)C(O)C1Cc1ccccc1 (centres unmarked) [Example 4T]
[1]; [4]
  Ki: < 10 nM
[2]; HIV RNA assay
  IC90: +++ (+++=<10 μg/mL)

## O=C1N(Cc2cn(Cc3ccccc3)cn2)C(Cc2ccccc2)C(O)C(O)C(Cc2ccccc2)N1Cc1cn(Cc2ccccc2)cn1 (centres unmarked) [Example 6ZP]
[1]; [4]
  Ki: > 1000 nM
[2]; HIV RNA assay
  IC90: ++ (++=10 to 100 μg/mL)

## Cc1ccc(CN2C(=O)N(Cc3ccc(C)cc3)C(Cc3ccccc3)C(O)C(O)C2Cc2ccccc2)cc1 (centres unmarked) [Example 6T]
[1]
  Ki: < 10 nM
[2]; [3]
  IC90: < 10 µg/mL

## O=C1[C@@H](Cc2ccccc2)C[C@@H](O)[C@@H](Cc2ccccc2)N1Cc1ccccc1 [Example 25A]
[1]
  Ki: > 1000 nM

## C=COCCN1C(=O)N(CCOC=C)C(Cc2ccccc2)C(O)C(O)C1Cc1ccccc1 (centres unmarked) [Example 4D]
[1]
  Ki: 10 to 1000 nM

## O=S1(=O)N(Cc2ccccc2)CCC(O)C(Cc2ccccc2)N1Cc1ccccc1 (centres unmarked) [30Q]
[1]; Table 2t, read-out: Ki
  Ki: > 1000 nM

## O=C1N(Cc2ccc(F)cc2)C(Cc2ccccc2)C(O)C(O)C(Cc2ccccc2)N1CC1CC1 (centres unmarked) [Example 6V]
[1]; [4]
  Ki: < 10 nM
[2]; HIV RNA assay
  IC90: +++ (+++=<10 μg/mL)

## N#Cc1cccc(CN2CCC(O)C(Cc3ccccc3)N(Cc3cccc(C#N)c3)C2=O)c1 (centres unmarked) [30P]
[1]; Table 2t, read-out: Ki
  Ki: > 1000 nM

## NCc1cccc(CN2C(=O)N(Cc3cccc(CN)c3)C(Cc3ccccc3)C(O)C(O)C2Cc2ccccc2)c1 (centres unmarked) [Example 6ZK]
[1]
  Ki: 10 to 1000 nM
[2]; [3]
  IC90: 10 to 100 µg/mL (≈ 17.7 to 177 µM)

## O=C1N(CC2CCCC2)C(Cc2ccccc2)C(O)C(O)C(Cc2ccccc2)N1CC1CC1 (centres unmarked) [Example 4F]
[1]
  Ki: < 10 nM
[2]; [3]
  IC90: < 10 µg/mL

## Nc1cccc(CN2C(=O)N(Cc3cccc(N)c3)C(Cc3ccccc3)C(O)C(O)C2Cc2ccccc2)c1 (centres unmarked) [Example 6ZI]
[1]
  Ki: < 10 nM
[2]; [3]
  IC90: < 10 µg/mL

## CC(C)N1C(=O)N(Cc2ccc(O)cc2)C(Cc2ccccc2)C(O)C(O)C1Cc1ccccc1 (centres unmarked) [Example 5Y]
[1]; [4]
  Ki: < 10 nM
[2]; HIV RNA assay
  IC90: +++ (+++=<10 μg/mL)

## O=C1NC(Cc2ccccc2)C(O)C(O)C(Cc2ccccc2)N1Cc1cccc([N+](=O)[O-])c1 (centres unmarked) [Example 6ZL]
[1]
  Ki: < 10 nM
[2]; [3]
  IC90: < 10 µg/mL

## O=C1N(CC2CCCCC2)C(Cc2ccccc2)C(O)C(O)C(Cc2ccccc2)N1CC1CCCCC1 (centres unmarked) [Example 3O]
[1]; [4]
  Ki: 10 to 1000 nM
[2]; HIV RNA assay
  IC90: + (+=>100 μg/mL)

## O=C1N(Cc2ccc(Br)cc2)C(Cc2ccccc2)C(O)C(O)C(Cc2ccccc2)N1Cc1ccc(Br)cc1 (centres unmarked) [Example 6ZG]
[1]
  Ki: 10 to 1000 nM
[2]; [3]
  IC90: < 10 µg/mL

## C=CCN1C(=O)N(Cc2ccc3ccccc3n2)C(Cc2ccccc2)C(O)C(O)C1Cc1ccccc1 (centres unmarked) [Example 5D]
[1]; [4]
  Ki: < 10 nM
[2]; HIV RNA assay
  IC90: +++ (+++=<10 μg/mL)

## O=C1N(CC2CCC2)C(Cc2ccccc2)C(O)C(O)C(Cc2ccccc2)N1CC1CCC1 (centres unmarked) [Example 6G]
[1]
  Ki: < 10 nM
[2]; [3]
  IC90: < 10 µg/mL

## C=CCN1C(=O)N(CC2CC2)C(Cc2ccccc2)C(O)C(O)C1Cc1ccccc1 (centres unmarked) [Example 3W]
[1]; [4]
  Ki: < 10 nM
[2]; HIV RNA assay
  IC90: +++ (+++=<10 μg/mL)

## NC(=NO)c1cccc(CN2CCC(O)C(Cc3ccccc3)N(Cc3cccc(C(N)=NO)c3)C2=O)c1 (centres unmarked) [30R]
[1]; Table 2t, read-out: Ki
  Ki: < 10 nM

## O=C1N(Cc2ccccc2Cl)C(Cc2ccccc2)C(O)C(O)C(Cc2ccccc2)N1Cc1ccccc1Cl (centres unmarked) [Example 6ZD]
[1]
  Ki: 10 to 1000 nM
[2]; [3]
  IC90: < 10 µg/mL

## C=CCN1C(=O)N(CC2CCCC2)C(Cc2ccccc2)C(O)C(O)C1Cc1ccccc1 (centres unmarked) [Example 5B]
[1]; [4]
  Ki: < 10 nM
[2]; HIV RNA assay
  IC90: +++ (+++=<10 μg/mL)

## O=C1N(Cc2ccccc2)CC(O)C(Cc2ccccc2)N1Cc1ccccc1 (centres unmarked) [30U]
[1]; Table 2t, read-out: Ki
  Ki: > 1000 nM
